# According to PubChem BioAssay AID540268 (Broad Institute, 2011):
# Active and inactive are the calls of the source. No rule for the calls is given here.
# Test: reduced viability of parasite-Hsp90 expressing yeast – ATP luminescence, 48 h, cherry-picked samples, anti-malarial Hsp90 inhibitor project, dose response (AID 540268);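 as to activity change, negative = inhibition: 0% = neutral control wells and -100% = positive control wells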
# Conditions: yeast expressing the parasite Hsp90, ATP luminescence; for activity change, negative = inhibition: at 26 µM (top of the series)
Structure (SMILES),AC50 [µM],"activity change, negative = inhibition"
CCCCCCCCCCCCCCCCn1cc[n+](C)c1,2.89,–
O=C1Nc2ccc(Br)cc2C12NNc1ccccc1O2 (centres undefined),1.46,–
O=C1c2cc(F)ccc2-n2c1nc1ccccc1c2=O,2.96,–
O=C1CC(N2CCCCCC2)C(=O)N1c1ccc2c(c1)OCO2 (centres undefined),4.12,–
O=[N+]([O-])c1oc2ccc3ccccc3c2c1CCO,2.06,–
Cc1ccc(N/N=C(\C#N)C(N)=S)c(C)c1,1.32,–
CCCCN(CCCC)CCC(O)c1cc2c(Cl)cc(Cl)cc2c2cc(C(F)(F)F)ccc12 (centres undefined),7.42,–
C(=NN=C1c2ccccc2-c2ccccc21)c1c[nH]c2ccccc12,2.72,–
O=[N+]([O-])c1cc2no[n+]([O-])c2cc1N1CCCCC1,0.877,–
Cc1cccc(N=C2c3cc([N+](=O)[O-])ccc3-c3c2cc([N+](=O)[O-])cc3[N+](=O)[O-])c1,9.02,–
Oc1c(Br)cc(Br)cc1C=NCc1ccccc1,7.51,–
O=C1NC(=S)NC(=O)C1=Cc1ccc(Br)s1,4.48,–
Oc1ccc2ccccc2c1N=Nc1nccs1,0.63,–
COc1cc(N=c2ssnc2Cl)c(OC)cc1Cl,–,-119% (inactive)
O=c1[nH]c(-c2ccccn2)nc(C(F)(F)F)c1Br,4,–
Cc1ccc(NC(=O)c2ccc(Cl)c(N3C(=O)C=CC3=O)c2)cc1,2.38,–
CCCCCCCCCCCCCCCCn1cc[n+](CC(C)=O)c1,4.39,–
CC(C)(C)c1nn(-c2ccccc2)c2[nH]c(=O)c(C=O)cc12,1.31,–
O=C(/C=C/c1cc(Br)ccc1O)c1ccco1,5.35,–
Cc1nnc(N=c2ssnc2Cl)o1,1.03,–
O=C(CCc1ccccc1)NC(c1cccs1)c1cc(Cl)c2cccnc2c1O (centres undefined),15.5,–
Oc1ccc(N=Nc2nc(-c3ccccc3)c(-c3ccccc3)[nH]2)cc1,6.13,–
COc1ccccc1-c1sc2cc3c(cc2c1-c1ccc(O)cc1)OCO3,8.2,–

Structure (SMILES),AC50 [µM],"activity change, negative = inhibition"
CC1=CN2C(=N)/C(=C/c3ccc([N+](=O)[O-])o3)C(=O)N=C2S1,1.34,–
CCN1/C(=C\c2ccc3cc(C)ccc3[n+]2CC)Sc2cc(C)c(C)cc21,3.51,–
CCN(CC)C1CC(=O)N(c2cccc(Cl)c2)C1=O (centres undefined),0.97,–
O=C(Nc1ccccc1)C(Cl)C(=O)c1ccccc1 (centres undefined),0.532,–
CCOC(=O)c1cc2cc(OCc3ccccc3)ccc2nc1C,2.97,–
COC(=O)c1ccc(NC(=O)c2cn(-c3ccccc3)nc2-c2ccncc2)cc1,4.08,–
CC(C)Oc1ccc(C(=O)/C=C2/C(=O)Nc3ccccc32)cc1,2.62,–
CCCCCCCCCCCCCCCC[n+]1ccc(/C=N/O)cc1,< 0.195,–
O=S(=O)(Nc1nc2ccccc2nc1N1CCN(c2ccccn2)CC1)c1ccc(Cl)cc1,8.25,–
Cc1c(OCC(=O)C(C)(C)C)ccc2c(-c3ccccc3)cc(=O)oc12,8.35,–
CC1CCN(C(CC(=O)c2ccccc2)C(=O)c2ccccc2)CC1 (centres undefined),3.28,–
COc1ccc2c(c1)OC[C@H]1[C@H]2N2C(=O)c3cc(C)ccc3NC(=O)[C@@]2(C)[C@H]1c1ccccc1,0.988,–
O=[N+]([O-])/C=C/c1c(Cl)cccc1Cl,0.457,–
CCc1ccc(NC(=O)c2nc(S(=O)(=O)Cc3ccccc3)ncc2Cl)cc1,3.5,–
Cc1cc(N=Nc2ccc3ccccc3c2)ccc1O,2.93,–
CCc1ccc2c(c1)/C(=C/C(=O)c1cccs1)C(=O)N2,4.7,–
O=C(/C=C/c1cccc(C(F)(F)F)c1)Nc1cccc(C(F)(F)F)c1,8.08,–
O=C1NC(=S)S/C1=C\C=C\c1ccc([N+](=O)[O-])o1,2.45,–
O=C(Nc1nnc(-c2ccc(F)cc2)o1)c1cc(Cl)sc1Cl,2.43,–
CCC(C)Nc1ccc(NC(C)CC)cc1 (centres undefined),3.26,–
CCCCCCCCCCCCCCCC[N+](C)(C)Cc1ccc(F)cc1,0.213,–
O=[N+]([O-])c1ccc(NC(c2ccccc2)c2ccc3cccnc3c2O)cc1 (centres undefined),< 0.195,–
CCCc1cc(=O)oc2cc(OCc3ccc(C(=O)O)cc3)ccc12,2.73,–

Structure (SMILES),AC50 [µM],"activity change, negative = inhibition"
O=C1C=CC2(O[C@H](c3ccccc3)[C@@H](c3ccccc3)O2)[C@H](Sc2ccccc2O)C1,3.46,–
CCC(=O)NC(c1ccc(C)cc1)c1ccc2cccnc2c1O (centres undefined),3.48,–
O=C(OCC(=O)C12CC3CC(CC(C3)C1)C2)c1ccc(O)cc1,1.06,–
CCCCCCCCCCOC(=O)Cn1c(COc2ccc(OC)cc2)[n+](C)c2ccccc21,24.4,–
c1ccc(-c2cccc(-c3ccccn3)n2)nc1,1.03,–
O=C(/C(=C/c1ccc(Cl)cc1)c1nc2ccccc2[nH]1)c1ccccc1,7.04,–
COc1ccc(-c2nc(-c3ccccn3)no2)cc1,16.2,–
CCCCCCCCCCOC(=O)Cn1c(COc2ccc(C)cc2)[n+](C)c2ccccc21,25.8,–
O=[N+]([O-])c1ccc(Sc2cccc[n+]2[O-])c2nonc12,6.88,–
O=C1C=C(c2cccs2)C[C@H](c2ccccc2)[C@H]1n1nnc([N+](=O)[O-])n1,11.8,–
Cn1c2ccccc2c2ccc3c(c21)C(=O)C=CC3=O,8.02,–
Oc1cccc2ccc(/C=C/c3ccccc3Br)nc12,16.9,–
NC(=O)c1ccc(N=Cc2ccc([N+](=O)[O-])s2)cc1,1.48,–
CC1(C(=O)c2ccccc2)C2c3c(ccc4ccccc34)OC(=O)C21C(=O)N1CCOCC1 (centres undefined),4.16,–
Cc1cccc(C)c1NC(=O)COC(=O)c1ccc([N+](=O)[O-])o1,–,-33.6% (inactive)
O=C(Nc1nc(-c2cccs2)cs1)c1ccc([N+](=O)[O-])o1,5.69,–
Oc1c(C(c2ccccc2)N2CCOCC2)ccc2ccccc12 (centres undefined),6.53,–
O=C(Nc1nc(-c2ccccc2)cs1)c1ccccc1NS(=O)(=O)c1ccc(F)cc1,4.09,–
CC(=O)N(C)c1ccc(OCC(O)Cn2c3ccc(Cl)cc3c3cc(Cl)ccc32)cc1 (centres undefined),4.56,–
O=[N+]([O-])c1ccc(C=Nc2cccc3ccccc23)s1,8.33,–
CC(C)(C)C(=O)C(Cl)C(=O)Nc1ccccc1 (centres undefined),1.06,–
Oc1c(C(c2ccccc2Cl)N2CCCC2)ccc2cccnc12 (centres undefined),3.51,–
CCN(CC)S(=O)(=O)c1cccc(NC(=O)c2ccc(Br)cc2)c1,5.81,–

Structure (SMILES),AC50 [µM],"activity change, negative = inhibition"
CNc1ccc2oc(C[C@H]3O[C@@]4(CC[C@H]3C)O[C@H]([C@H](C)C(=O)c3ccc[nH]3)[C@H](C)C[C@H]4C)nc2c1C(=O)O,0.813,–
Cc1ccc(OCC(=O)NNC(=S)NC(=O)C2CC2)c(C)c1,4.16,–
COc1ccc2c(c1)CCc1c(C(=O)N3CCc4ccccc4C3)noc1-2,4.5,–
CCN1/C(=C/c2ccc3cc(C)ccc3[n+]2CC)Sc2cc(C)ccc21,5.54,–
Cc1ccc(S(=O)(=O)Nc2ccc3ccccc3c2[N+](=O)[O-])cc1,7.36,–
CC(C)(C)c1nnc(N/N=C/c2cc(Br)ccc2O)n(N)c1=O,4.92,–
CC1=C(O)C(=O)C=C2C1=CC=C1C2(C)CCC2(C)C3CC(C)(C(=O)O)CCC3(C)CCC12C (centres undefined),1.48,–
Cc1ccc(C2=NC(C)(C)N=C2SCC(=O)Nc2ccc(Cl)cc2)cc1,26.2,–
COc1ccc2c(c1)[C@H]1[C@H](CO2)[C@H](c2ccccc2)[C@]2(C)C(=O)Nc3ccc(Cl)cc3C(=O)N12,1.8,–
Cc1cccc(C(=O)NC(=S)NNC(=O)Cc2ccccc2)c1,4.34,–
Cc1ccc(O)c(NC(=S)NC(=O)c2ccc(-c3ccc(Cl)cc3)o2)c1,14.7,–
O=C1c2ccccc2NC(c2ccc(-c3ccc(Br)cc3)o2)N1O (centres undefined),7.96,–
CCN(CCO)C1CC(=O)N(c2ccccc2C)C1=O (centres undefined),1.26,–
C[C@@]12C(=O)Nc3ccc(Cl)cc3C(=O)N1[C@H]1c3ccccc3OC[C@@H]1[C@@H]2c1ccccc1,0.487,–
CCOC(=O)c1c(-n2c(C)cc(C=C3C(=O)NC(=S)NC3=O)c2C)sc2c1CCCC2,2.99,–
CN1CCN(C(c2ccccn2)c2cc(Cl)c3cccnc3c2O)CC1 (centres undefined),7.88,–
Nc1cccc(Oc2c(F)c(F)c(Oc3cccc(N)c3)c(F)c2F)c1,9.03,–
Oc1ccc(/C=C/c2ccc3cccc(O)c3n2)cc1Br,4.26,–
CC1C/C(=C/c2ccncc2)C(=O)/C(=C/c2ccncc2)C1 (centres undefined),2.83,–
S=C1SCN(Cc2cccnc2)CN1Cc1cccnc1,4.07,–
CC(=NNC(=S)N1CC2CCC(CC2)C1)c1nccs1,25.7,–
CCCCCC(=O)N(O)C1CC(=O)N(c2ccccc2)C1=O (centres undefined),1.13,–
Oc1ccc(-c2c(-c3ccsc3)sc3ccccc23)cc1,2.72,–

Structure (SMILES),AC50 [µM],"activity change, negative = inhibition"
CCCCCCCCCCCCn1ccc(=N)cc1,7.7,–
COc1ccc2c(c1)OC[C@H]1[C@H]2N2C(=O)c3cc(Cl)ccc3NC(=O)[C@@]2(C)[C@H]1c1ccccc1,1.12,–
CC(C)(C)C1C/C(=C/c2ccccn2)C(=O)/C(=C/c2ccccn2)C1 (centres undefined),8.29,–
Cc1cc2n(n1)C(c1c[nH]c3ccccc13)Nc1ccccc1-2 (centres undefined),2.67,–
Cc1ccc(C(C[N+](=O)[O-])Sc2ccc(N)cc2)cc1 (centres undefined),6.83,–
COc1ccccc1C(=O)NNC(=S)NC(=O)c1ccco1,2.41,–
Cc1ccc(N=Cc2cc(Cc3ccccc3Cl)cc([N+](=O)[O-])c2O)c(O)c1,0.216,–
CCOc1ccc2c(ccc(/C=C/c3cc(C)c4cccnc4c3O)[n+]2C)c1,4.11,–
CSC(=S)NN=C(C)c1cccc(C)n1,15.6,–
CC1=CC(=O)C=C(C)C1=NOS(=O)(=O)c1ccccc1,1.4,–
CC(C)OC(=O)c1ccc(NCc2cc(O)ccc2O)cc1Cl,24.1,–
O=C(N/N=C/c1ccccn1)c1cc(-c2ccc(Cl)cc2)nc2ccccc12,8.57,–
COCCOC(=O)/C(=C/c1ccc(OC(=O)c2ccccc2)cc1)C(C)=O,2.68,–
CC[C@H](C)/C=C/C1=CC2=C(Cl)C(=O)[C@@]3(C)OC(=O)C(C(=O)[C@H](C)[C@@H](C)O)=C3C2=CO1,15.2,–
O=C(c1cccs1)c1no[n+]([O-])c1C(=O)c1cccs1,2.18,–
O=C(C#Cc1ccccc1)c1ccco1,1.95,–
CCCCC(=O)NC(c1cccs1)c1cc(Cl)c2cccnc2c1O (centres undefined),4.18,–
COc1cc(/C=C/C(=O)c2ccc([N+](=O)[O-])o2)ccc1O,2.02,–
Oc1ccc(C=NN=C2c3ccccc3-c3ccccc32)c(O)c1,1.86,–
O=c1cc(CSc2ccc(Cl)cc2)nc(-c2ccccn2)[nH]1,16.6,–
COc1ccc(-c2nn(-c3ccccc3)cc2C(=O)N2CCN(S(=O)(=O)c3cccc(F)c3)CC2)cc1,1.15,–
COC(=O)C1=C(C(=O)OC)SC2(S1)C(C(=O)OC)=C(C(=O)OC)Sc1c2ssc1=O,8.87,–
